In patent US7238689B2, “Isoxazoline derivative and herbicide comprising the same as active ingredient” (Ihara Chemical Industry Co., Ltd., priority 2001, dated 2007):

Key:
Assay type in all cases: in vivo
Design in all cases: scale not given here
[1] = test system: Echinochloa oryzicola Vasing; test: Herbicidal effect by paddy field soil treatment; settings: wettable powder, active ingredient 1000 g/ha, examined at the 21st day from the treatment
Description: (§1) A paddy field soil was filled in a plastic pot of 100 cm^2 and subjected to puddling. Then, seeds of Echinochloa oryzicola Vasing and Monochoria vaginalis (Murm. f.) Presl var. plantaginea (Roxb.) Solms-Laub. were sowed and water was filled in a depth of 3 cm. Next day, wettable powders produced in accordance with the Formulation 1 were diluted with water and dropped on the water surface. The application amount of each wettable powder was 1,000 g per 1 hectare in terms of the active ingredient. Then, breeding was made in a greenhouse, and the herbicidal effect of each wettable powder was examined at the 21st day from the treatment in accordance with the standard shown in Table 21.

[2] = test system: Monochoria vaginalis (Murm. f.) Presl var. plantaginea (Roxb.) Solms-Laub.; test: Herbicidal effect by paddy field soil treatment; settings: wettable powder, active ingredient 1000 g/ha, examined at the 21st day from the treatment
Description: as §1

[3] = test system: Echinochloa crus-galli (L.) Beauv. var. crusgalli; test: Herbicidal effect by upland field soil treatment; settings: active ingredient 1000 g/ha, examined at 21st day from treatment
From the text: (§2) An upland field soil was filled in a plastic pot of 80 cm^2. Seeds of Echinochloa crus-galli (L.) Beauv. var. crusgalli and Setaria viridis (L.) Beauv. were sowed, followed by covering with the same soil. […] Then, breeding was made in a greenhouse, and the herbicidal effect of each wettable powder was examined at the 21st day from the treatment in accordance with the standard shown in Table 21.

[4] = test system: Setaria viridis (L.) Beauv.; test: Herbicidal effect by upland field soil treatment; settings: active ingredient 1000 g/ha, examined at 21st day from treatment
From the text: as §2

CC1(C)CC(S(=O)(=O)Cc2c(C(F)(F)F)nn(CC(F)F)c2Cl)=NO1 [3-0114]
5: Herbicidal effect index, Echinochloa oryzicola Vasing [1] | Herbicidal effect index, Monochoria vaginalis (Burm. F.) Presl var. plantaginea (Roxb.) Solms-Laub. [2] | herbicidal effect (index per standard of Table 21), Echinochloa curs-galli (L.) Beauv. Var. crus-galli [3] | herbicidal effect (index per standard of Table 21), Setaria viridis (L.) Beauv. [4]

CC1(C)CC(S(=O)(=O)Cc2c(Cl)nn(CC(F)(F)F)c2C(F)(F)F)=NO1 [3-0117]
5: Herbicidal effect index, Echinochloa oryzicola Vasing [1] | Herbicidal effect index, Monochoria vaginalis (Burm. F.) Presl var. plantaginea (Roxb.) Solms-Laub. [2] | herbicidal effect (index per standard of Table 21), Echinochloa curs-galli (L.) Beauv. Var. crus-galli [3] | herbicidal effect (index per standard of Table 21), Setaria viridis (L.) Beauv. [4]

CCOCn1nc(Cl)c(CS(=O)(=O)C2=NOC(C)(C)C2)c1C(F)(F)F [3-0121]
5: Herbicidal effect index, Echinochloa oryzicola Vasing [1] | Herbicidal effect index, Monochoria vaginalis (Burm. F.) Presl var. plantaginea (Roxb.) Solms-Laub. [2] | herbicidal effect (index per standard of Table 21), Echinochloa curs-galli (L.) Beauv. Var. crus-galli [3] | herbicidal effect (index per standard of Table 21), Setaria viridis (L.) Beauv. [4]

COCCn1nc(C(F)(F)F)c(CS(=O)(=O)C2=NOC(C)(C)C2)c1Cl [3-0124]
5: Herbicidal effect index, Echinochloa oryzicola Vasing [1] | Herbicidal effect index, Monochoria vaginalis (Burm. F.) Presl var. plantaginea (Roxb.) Solms-Laub. [2] | herbicidal effect (index per standard of Table 21), Echinochloa curs-galli (L.) Beauv. Var. crus-galli [3] | herbicidal effect (index per standard of Table 21), Setaria viridis (L.) Beauv. [4]

COCCn1nc(Cl)c(CS(=O)(=O)C2=NOC(C)(C)C2)c1C(F)(F)F [3-0125]
5: Herbicidal effect index, Echinochloa oryzicola Vasing [1] | Herbicidal effect index, Monochoria vaginalis (Burm. F.) Presl var. plantaginea (Roxb.) Solms-Laub. [2] | herbicidal effect (index per standard of Table 21), Echinochloa curs-galli (L.) Beauv. Var. crus-galli [3] | herbicidal effect (index per standard of Table 21), Setaria viridis (L.) Beauv. [4]

CCOCCn1nc(C(F)(F)F)c(CS(=O)(=O)C2=NOC(C)(C)C2)c1Cl [3-0126]
5: Herbicidal effect index, Echinochloa oryzicola Vasing [1] | Herbicidal effect index, Monochoria vaginalis (Burm. F.) Presl var. plantaginea (Roxb.) Solms-Laub. [2] | herbicidal effect (index per standard of Table 21), Echinochloa curs-galli (L.) Beauv. Var. crus-galli [3] | herbicidal effect (index per standard of Table 21), Setaria viridis (L.) Beauv. [4]

CCOCCn1nc(Cl)c(CS(=O)(=O)C2=NOC(C)(C)C2)c1C(F)(F)F [3-0127]
5: Herbicidal effect index, Echinochloa oryzicola Vasing [1] | Herbicidal effect index, Monochoria vaginalis (Burm. F.) Presl var. plantaginea (Roxb.) Solms-Laub. [2] | herbicidal effect (index per standard of Table 21), Echinochloa curs-galli (L.) Beauv. Var. crus-galli [3] | herbicidal effect (index per standard of Table 21), Setaria viridis (L.) Beauv. [4]

CSCn1nc(C(F)(F)F)c(CS(=O)(=O)C2=NOC(C)(C)C2)c1Cl [3-0128]
5: Herbicidal effect index, Echinochloa oryzicola Vasing [1] | Herbicidal effect index, Monochoria vaginalis (Burm. F.) Presl var. plantaginea (Roxb.) Solms-Laub. [2] | herbicidal effect (index per standard of Table 21), Echinochloa curs-galli (L.) Beauv. Var. crus-galli [3] | herbicidal effect (index per standard of Table 21), Setaria viridis (L.) Beauv. [4]

CSCn1nc(Cl)c(CS(=O)(=O)C2=NOC(C)(C)C2)c1C(F)(F)F [3-0129]
5: Herbicidal effect index, Echinochloa oryzicola Vasing [1] | Herbicidal effect index, Monochoria vaginalis (Burm. F.) Presl var. plantaginea (Roxb.) Solms-Laub. [2] | herbicidal effect (index per standard of Table 21), Echinochloa curs-galli (L.) Beauv. Var. crus-galli [3] | herbicidal effect (index per standard of Table 21), Setaria viridis (L.) Beauv. [4]

CC1(C)CC(S(=O)(=O)Cc2c(C(F)(F)F)nn(CS(C)(=O)=O)c2Cl)=NO1 [3-0130]
5: Herbicidal effect index, Echinochloa oryzicola Vasing [1] | Herbicidal effect index, Monochoria vaginalis (Burm. F.) Presl var. plantaginea (Roxb.) Solms-Laub. [2] | herbicidal effect (index per standard of Table 21), Echinochloa curs-galli (L.) Beauv. Var. crus-galli [3] | herbicidal effect (index per standard of Table 21), Setaria viridis (L.) Beauv. [4]

CC1(C)CC(S(=O)(=O)Cc2c(Cl)nn(CS(C)(=O)=O)c2C(F)(F)F)=NO1 [3-0131]
5: Herbicidal effect index, Echinochloa oryzicola Vasing [1] | Herbicidal effect index, Monochoria vaginalis (Burm. F.) Presl var. plantaginea (Roxb.) Solms-Laub. [2] | herbicidal effect (index per standard of Table 21), Echinochloa curs-galli (L.) Beauv. Var. crus-galli [3] | herbicidal effect (index per standard of Table 21), Setaria viridis (L.) Beauv. [4]

CC1(C)CC(S(=O)(=O)Cc2c(C(F)(F)F)nn(CC#N)c2Cl)=NO1 [3-0134]
5: Herbicidal effect index, Echinochloa oryzicola Vasing [1] | Herbicidal effect index, Monochoria vaginalis (Burm. F.) Presl var. plantaginea (Roxb.) Solms-Laub. [2] | herbicidal effect (index per standard of Table 21), Echinochloa curs-galli (L.) Beauv. Var. crus-galli [3] | herbicidal effect (index per standard of Table 21), Setaria viridis (L.) Beauv. [4]

CC1(C)CC(S(=O)(=O)Cc2c(Cl)nn(CC#N)c2C(F)(F)F)=NO1 [3-0135]
5: Herbicidal effect index, Echinochloa oryzicola Vasing [1] | Herbicidal effect index, Monochoria vaginalis (Burm. F.) Presl var. plantaginea (Roxb.) Solms-Laub. [2] | herbicidal effect (index per standard of Table 21), Echinochloa curs-galli (L.) Beauv. Var. crus-galli [3] | herbicidal effect (index per standard of Table 21), Setaria viridis (L.) Beauv. [4]

CCOC(=O)Cn1nc(Cl)c(CS(=O)(=O)C2=NOC(C)(C)C2)c1C(F)(F)F [3-0137]
5: Herbicidal effect index, Echinochloa oryzicola Vasing [1] | Herbicidal effect index, Monochoria vaginalis (Burm. F.) Presl var. plantaginea (Roxb.) Solms-Laub. [2] | herbicidal effect (index per standard of Table 21), Echinochloa curs-galli (L.) Beauv. Var. crus-galli [3] | herbicidal effect (index per standard of Table 21), Setaria viridis (L.) Beauv. [4]
